In ChEMBL document CHEMBL1201862, “PubChem BioAssay data set” (2004):
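Five compound concentrations were applied to cells in 96-well plates for 48 hours; endpoints were derived by simple linear interpolation of the resulting dose-response curve. Abbreviation: GI50, concentration required for 50% inhibition of growth.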 Active and inactive are the calls of the source. Cut-off read from the data, not from the text of the source: active = GI50 up to about 1.1 µM and inactive = higher.

Experiments:
Assay in all cases: NCI anticancer screen, dose series, 48 h
[1] = test system: SNB-75
[2] = test system: BT-549
[3] = test system: SF-268
[4] = test system: DU-145
[5] = test system: RXF 393
[6] = test system: Malme-3M
[7] = test system: ACHN
[8] = test system: KM12
[9] = test system: UACC-257
[10] = test system: HL-60
[11] = test system: OVCAR-5
[12] = test system: OVCAR-4
[13] = test system: U-251
[14] = test system: M14
[15] = test system: NCI/ADR-RES
[16] = test system: OVCAR-8
[17] = test system: EKVX
[18] = test system: SN12C
[19] = test system: SNB-19
[20] = test system: SF-295
[21] = test system: K562
[22] = test system: HCT-15
[23] = test system: 786-0
[24] = test system: LOX IMVI
[25] = test system: A549
[26] = test system: IGROV-1
[27] = test system: MDA-MB-435
[28] = test system: RPMI-8226
[29] = test system: SK-OV-3
[30] = test system: TK-10
[31] = test system: MCF7
[32] = test system: T47D
[33] = test system: NCI-H460
[34] = test system: NCI-H23
[35] = test system: PC-3
[36] = test system: SF-539
[37] = test system: NCI-H226
[38] = test system: SW-620
[39] = test system: COLO 205
[40] = test system: UACC-62
[41] = test system: HT-29
[42] = test system: SK-MEL-2
[43] = test system: MOLT-4
[44] = test system: SK-MEL-28
[45] = test system: MDA-MB-231
[46] = test system: MDA-N
[47] = test system: OVCAR-3
[48] = test system: HCT-116
[49] = test system: UO-31
[50] = test system: CCRF-CEM
[51] = test system: Hs-578T
[52] = test system: HOP-62
[53] = test system: HOP-92
[54] = test system: SK-MEL-5
[55] = test system: HCC 2998
[56] = test system: CAKI-1
[57] = test system: NCI-H522
[58] = test system: A498

Measured: GI50

O=S(=O)(/N=S(/Nc1ccccc1)C(Cl)Cl)c1ccccc1 (centres undefined)
> 100 µM: [22]
inactive: [1] > 100 µM | [2] > 100 µM | [3] > 100 µM | [4] > 100 µM | [5] > 100 µM | [6] > 100 µM | [7] > 100 µM | [8] > 100 µM | [9] > 100 µM | [10] > 100 µM | [11] > 100 µM | [12] > 100 µM | [13] > 100 µM | [14] > 100 µM | [15] > 100 µM | [16] > 100 µM | [17] > 100 µM | [18] > 100 µM | [19] > 100 µM | [20] > 100 µM | [21] > 100 µM | [23] > 100 µM | [24] > 100 µM | [25] > 100 µM | [26] > 100 µM | [27] > 100 µM | [28] > 100 µM | [29] > 100 µM | [30] > 100 µM | [31] > 100 µM | [32] > 100 µM | [33] > 100 µM | [34] > 100 µM | [35] > 100 µM | [36] > 100 µM | [37] > 100 µM | [38] > 100 µM | [39] > 100 µM | [40] > 100 µM | [41] > 100 µM | [42] > 100 µM | [43] > 100 µM | [44] > 100 µM | [45] > 100 µM | [46] > 100 µM | [47] > 100 µM | [48] > 100 µM | [49] > 100 µM | [50] > 100 µM | [51] > 100 µM | [52] > 100 µM | [53] > 100 µM

Nc1ccn(C2CCC(COP(=O)(O)OCC(O)COP(=O)(O)OCC3OC(n4cc(F)c(=O)[nH]c4=O)CC3O)O2)c(=O)n1 (centres undefined)
active: [3] 0.0101 µM | [4] 0.165 µM | [7] < 0.0106 µM | [54] 0.514 µM | [10] 0.0716 µM | [13] 1.04 µM | [14] 0.473 µM | [15] 0.215 µM | [16] 0.157 µM | [55] 0.656 µM | [18] 0.135 µM | [19] 0.211 µM | [20] 0.0459 µM | [24] < 0.0149 µM | [25] 0.386 µM | [31] < 0.01 µM | [33] < 0.01 µM | [34] 0.139 µM | [56] 0.316 µM | [36] 0.0216 µM | [57] 0.628 µM | [40] 0.136 µM | [43] 0.102 µM | [48] 0.581 µM | [49] 0.0622 µM | [50] 0.124 µM | [52] 0.232 µM | [53] 0.0419 µM
14.4 µM: [22]
inactive: [1] 3.54 µM | [2] 3.09 µM | [5] 3.33 µM | [6] > 53.8 µM | [8] > 38.1 µM | [9] > 100 µM | [11] 9.93 µM | [12] > 23.7 µM | [17] > 75.9 µM | [21] 2.61 µM | [23] > 76.4 µM | [26] 11.2 µM | [27] 14.8 µM | [28] 10.4 µM | [29] 59.2 µM | [30] 5.14 µM | [32] 1.42 µM | [35] 2.01 µM | [37] > 100 µM | [38] > 100 µM | [39] 8.3 µM | [41] 2.79 µM | [42] 75.3 µM | [44] 26.4 µM | [45] 44.1 µM | [46] 8.34 µM | [47] 23.2 µM | [51] 1.96 µM

NNS(=O)(=O)c1ccc(/C=C2\NC(=O)NC2=O)cc1
inactive: [1] > 100 µM | [2] > 100 µM | [3] > 100 µM | [4] > 100 µM | [6] > 100 µM | [7] > 100 µM | [8] > 100 µM | [54] > 100 µM | [9] > 100 µM | [58] > 100 µM | [10] > 100 µM | [11] 58.1 µM | [12] > 100 µM | [13] > 100 µM | [14] > 100 µM | [15] > 100 µM | [16] > 100 µM | [55] > 100 µM | [17] > 100 µM | [18] > 100 µM | [19] > 100 µM | [20] > 100 µM | [21] > 100 µM | [23] > 100 µM | [24] > 100 µM | [25] > 100 µM | [26] > 100 µM | [27] > 100 µM | [28] > 100 µM | [29] > 100 µM | [30] > 100 µM | [31] > 100 µM | [32] > 100 µM | [34] > 100 µM | [35] > 100 µM | [56] > 100 µM | [37] > 100 µM | [38] > 100 µM | [39] > 100 µM | [40] > 100 µM | [41] > 100 µM | [42] 37.9 µM | [43] > 100 µM | [44] > 100 µM | [45] > 100 µM | [46] > 100 µM | [47] > 100 µM | [48] > 100 µM | [49] > 100 µM | [50] > 100 µM | [51] > 100 µM | [52] > 100 µM | [53] > 100 µM
> 100 µM: [22]
